{"source": "patent US20220242870A1", "about": "“HETEROCYCLE-FUSED PYRIMIDINE DERIVATIVE AND USE THEREOF” (VORONOI Inc., priority 2019, published 2022)", "key": {"[1]": {"system": "MCF-7 cells", "assay": "Breast cancer cell line proliferation inhibitory activity (CellTiter-Glo 2.0)", "type": "cell-based", "conditions": "Homo sapiens, MCF7, 120 hours", "in_short": "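MCF-7 cells exposed to a 12-point, 3-fold dilution series (final 0.00005–10 μM) for 120 h at 37 °C. Viability read by CellTiter-Glo 2.0 luminescence, expressed as percent of vehicle-treated cells. GI50 (nM) derived from the curves.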"}, "[2]": {"target": "T1, ARK5 (Homo sapiens, UniProt O60285)", "T1 construct": "purchased DiscoverX (scanMAX panel, contract assay)", "assay": "scanMAX kinase assay panel", "type": "binding", "conditions": "read-out: control percentage (% control)", "in_short": "(§1)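 Compound was applied as a 1 μM solution in DMSO across the scanMAX kinase panel. Activity is reported as % control, scaled between a positive control (0%) and the DMSO negative control (100%).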"}, "[3]": {"target": "T2, CLK1 (Homo sapiens, UniProt P49759)", "T2 construct": "purchased DiscoverX (scanMAX panel, contract assay)", "assay": "scanMAX kinase assay panel", "type": "binding", "conditions": "read-out: control percentage (% control)", "in_short": "as §1"}, "[4]": {"target": "T3, DCAMKL3 (Homo sapiens, UniProt Q9C098)", "T3 construct": "purchased DiscoverX (scanMAX panel, contract assay)", "assay": "scanMAX kinase assay panel", "type": "binding", "conditions": "read-out: control percentage (% control)", "in_short": "as §1"}, "[5]": {"target": "T4, DLK (Homo sapiens, UniProt Q12852)", "T4 construct": "purchased DiscoverX scanMAX kinase assay panel", "assay": "scanMAX kinase assay panel", "type": "binding", "conditions": "read-out: control percentage (% control)", "in_short": "as §1"}, "[6]": {"target": "T5, EPHB4 (Homo sapiens, UniProt P54760)", "T5 construct": "purchased DiscoverX scanMAX kinase assay panel", "assay": "scanMAX kinase assay panel", "type": "binding", "conditions": "read-out: control percentage (% control)", "in_short": "as §1"}, "[7]": {"target": "T6, FLT3(D835Y) (Homo sapiens, UniProt P36888, D835Y)", "T6 construct": "purchased DiscoverX scanMAX kinase assay panel", "assay": "scanMAX kinase assay panel", "type": "binding", "conditions": "read-out: control percentage (% control)", "in_short": "as §1"}, "[8]": {"system": "FLT3(ITD, F691L)", "assay": "scanMAX kinase assay panel", "type": "binding", "conditions": "1 μM", "in_short": "as §1"}, "[9]": {"target": "T7, JNK3 (Homo sapiens, UniProt P53779)", "T7 construct": "purchased DiscoverX scanMAX kinase assay panel", "T7 sequence (P53779 whole entry)": "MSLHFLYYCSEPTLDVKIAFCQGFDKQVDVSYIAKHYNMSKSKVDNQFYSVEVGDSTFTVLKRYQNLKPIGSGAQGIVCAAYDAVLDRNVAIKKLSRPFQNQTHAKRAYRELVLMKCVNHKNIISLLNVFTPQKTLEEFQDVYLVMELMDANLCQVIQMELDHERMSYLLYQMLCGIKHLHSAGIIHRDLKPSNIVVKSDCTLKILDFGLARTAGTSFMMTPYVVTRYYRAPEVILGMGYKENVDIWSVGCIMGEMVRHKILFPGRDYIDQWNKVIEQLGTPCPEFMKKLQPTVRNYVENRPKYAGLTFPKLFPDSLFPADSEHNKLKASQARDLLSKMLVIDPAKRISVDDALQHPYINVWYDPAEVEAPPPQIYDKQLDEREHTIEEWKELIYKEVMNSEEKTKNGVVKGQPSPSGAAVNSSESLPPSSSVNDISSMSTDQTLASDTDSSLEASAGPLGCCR", "assay": "scanMAX kinase assay panel", "type": "binding", "conditions": "read-out: control percentage (% control)", "in_short": "as §1"}, "[10]": {"target": "T8, LCK (Homo sapiens, UniProt P06239)", "T8 construct": "purchased DiscoverX scanMAX kinase assay panel", "T8 sequence (P06239 whole entry)": "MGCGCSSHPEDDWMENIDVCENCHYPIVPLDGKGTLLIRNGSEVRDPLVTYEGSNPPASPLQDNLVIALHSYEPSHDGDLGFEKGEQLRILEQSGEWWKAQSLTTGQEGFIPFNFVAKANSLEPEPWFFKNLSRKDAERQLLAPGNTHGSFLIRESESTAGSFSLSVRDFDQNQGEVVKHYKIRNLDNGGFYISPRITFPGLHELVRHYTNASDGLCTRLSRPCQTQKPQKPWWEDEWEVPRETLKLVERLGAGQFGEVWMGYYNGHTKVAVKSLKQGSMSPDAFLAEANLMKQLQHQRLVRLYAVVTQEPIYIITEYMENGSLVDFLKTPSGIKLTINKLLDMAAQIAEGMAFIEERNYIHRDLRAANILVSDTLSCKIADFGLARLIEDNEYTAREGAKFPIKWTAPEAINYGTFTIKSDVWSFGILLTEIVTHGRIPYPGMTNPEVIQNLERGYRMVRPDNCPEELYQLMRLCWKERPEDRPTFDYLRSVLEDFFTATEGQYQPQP", "assay": "scanMAX kinase assay panel", "type": "binding", "conditions": "read-out: control percentage (% control)", "in_short": "as §1"}, "[11]": {"target": "T9, LOK (Homo sapiens, UniProt O94804)", "T9 construct": "purchased DiscoverX scanMAX kinase assay panel", "assay": "scanMAX kinase assay panel", "type": "binding", "conditions": "read-out: control percentage (% control)", "in_short": "as §1"}, "[12]": {"target": "T10, LRRK2 (Homo sapiens, UniProt Q5S007)", "T10 construct": "purchased DiscoverX scanMAX kinase assay panel", "assay": "scanMAX kinase assay panel", "type": "binding", "conditions": "read-out: control percentage (% control)", "in_short": "as §1"}, "[13]": {"target": "T11, MARK3 (Homo sapiens, UniProt P27448)", "T11 construct": "purchased DiscoverX scanMAX kinase assay panel", "T11 sequence (P27448 whole entry)": "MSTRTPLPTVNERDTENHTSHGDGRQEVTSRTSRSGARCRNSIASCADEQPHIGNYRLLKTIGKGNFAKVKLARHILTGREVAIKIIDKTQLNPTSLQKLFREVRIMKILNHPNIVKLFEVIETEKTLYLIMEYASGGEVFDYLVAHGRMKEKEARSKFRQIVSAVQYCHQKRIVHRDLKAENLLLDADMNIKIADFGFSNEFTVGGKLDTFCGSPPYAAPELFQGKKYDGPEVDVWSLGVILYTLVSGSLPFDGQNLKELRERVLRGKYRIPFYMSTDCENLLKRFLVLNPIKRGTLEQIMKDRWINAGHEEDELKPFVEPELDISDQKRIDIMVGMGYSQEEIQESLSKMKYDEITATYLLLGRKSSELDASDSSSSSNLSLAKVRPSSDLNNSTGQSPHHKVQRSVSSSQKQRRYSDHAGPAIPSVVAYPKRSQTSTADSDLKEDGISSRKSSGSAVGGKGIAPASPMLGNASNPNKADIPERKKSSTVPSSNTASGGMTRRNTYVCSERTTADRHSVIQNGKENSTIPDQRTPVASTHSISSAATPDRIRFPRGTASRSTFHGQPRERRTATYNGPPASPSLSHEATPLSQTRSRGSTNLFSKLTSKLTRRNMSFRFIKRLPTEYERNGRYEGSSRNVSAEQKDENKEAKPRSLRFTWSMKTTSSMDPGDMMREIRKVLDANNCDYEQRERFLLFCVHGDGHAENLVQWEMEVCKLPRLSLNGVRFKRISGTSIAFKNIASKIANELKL", "assay": "scanMAX kinase assay panel", "type": "binding", "conditions": "read-out: control percentage (% control)", "in_short": "as §1"}, "[14]": {"target": "T12, MEK2 (Homo sapiens, UniProt P36507)", "T12 construct": "purchased DiscoverX scanMAX kinase assay panel", "T12 sequence (P36507 whole entry)": "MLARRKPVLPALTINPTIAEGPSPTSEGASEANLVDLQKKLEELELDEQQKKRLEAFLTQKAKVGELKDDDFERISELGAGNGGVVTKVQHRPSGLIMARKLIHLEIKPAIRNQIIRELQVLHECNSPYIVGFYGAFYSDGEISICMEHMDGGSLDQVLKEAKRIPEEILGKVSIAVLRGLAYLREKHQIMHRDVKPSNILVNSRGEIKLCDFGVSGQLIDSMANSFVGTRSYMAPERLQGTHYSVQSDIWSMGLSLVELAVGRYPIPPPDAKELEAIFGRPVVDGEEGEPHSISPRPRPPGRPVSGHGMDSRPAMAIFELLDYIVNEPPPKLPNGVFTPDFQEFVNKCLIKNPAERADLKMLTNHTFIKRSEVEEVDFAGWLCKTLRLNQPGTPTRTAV", "assay": "scanMAX kinase assay panel", "type": "binding", "conditions": "read-out: control percentage (% control)", "in_short": "as §1"}, "[15]": {"target": "T13, NEK10 (Homo sapiens, UniProt Q6ZWH5)", "T13 construct": "purchased DiscoverX scanMAX kinase assay panel", "assay": "scanMAX kinase assay panel", "type": "binding", "conditions": "read-out: control percentage (% control)", "in_short": "as §1"}, "[16]": {"target": "T14, ROCK1 (Homo sapiens, UniProt Q13464)", "T14 construct": "purchased DiscoverX scanMAX kinase assay panel", "assay": "scanMAX kinase assay panel", "type": "binding", "conditions": "read-out: control percentage (% control)", "in_short": "as §1"}, "[17]": {"target": "T15, RSK4(Kin.Dom.2-C-terminal) (Homo sapiens, UniProt Q9UK32)", "T15 construct": "RSK4(Kin.Dom.2-C-terminal); purchased DiscoverX scanMAX kinase assay panel", "T15 sequence (Q9UK32 426-683 limits assumed)": "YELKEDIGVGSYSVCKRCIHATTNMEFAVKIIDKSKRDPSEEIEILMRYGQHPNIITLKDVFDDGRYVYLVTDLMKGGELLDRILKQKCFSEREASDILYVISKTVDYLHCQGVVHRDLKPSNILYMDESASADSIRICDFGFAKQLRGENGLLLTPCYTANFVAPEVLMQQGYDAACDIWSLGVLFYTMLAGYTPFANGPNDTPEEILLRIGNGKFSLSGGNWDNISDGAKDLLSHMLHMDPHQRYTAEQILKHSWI", "assay": "scanMAX kinase assay panel", "type": "binding", "conditions": "read-out: control percentage (% control)", "in_short": "as §1"}, "[18]": {"target": "T16, SLK (Homo sapiens, UniProt Q9H2G2)", "T16 construct": "purchased DiscoverX", "assay": "scanMAX kinase assay panel", "type": "binding", "conditions": "read-out: control percentage (% control)", "in_short": "as §1"}, "[19]": {"target": "T17, SRPK1 (Homo sapiens, UniProt Q96SB4)", "T17 construct": "purchased DiscoverX", "assay": "scanMAX kinase assay panel", "type": "binding", "conditions": "read-out: control percentage (% control)", "in_short": "as §1"}, "[20]": {"target": "T18, SRPK3 (Homo sapiens, UniProt Q9UPE1)", "T18 construct": "purchased DiscoverX", "assay": "scanMAX kinase assay panel", "type": "binding", "conditions": "read-out: control percentage (% control)", "in_short": "as §1"}, "[21]": {"target": "T19, SYK (Homo sapiens, UniProt P43405)", "T19 construct": "purchased DiscoverX", "assay": "scanMAX kinase assay panel", "type": "binding", "conditions": "read-out: control percentage (% control)", "in_short": "as §1"}, "[22]": {"target": "T20, TAK1 (Homo sapiens, UniProt O43318)", "T20 construct": "purchased DiscoverX", "assay": "scanMAX kinase assay panel", "type": "binding", "conditions": "read-out: control percentage (% control)", "in_short": "as §1"}, "[23]": {"target": "T21, TIE1 (Homo sapiens, UniProt P35590)", "T21 construct": "purchased DiscoverX", "T21 sequence (P35590 22-1138)": "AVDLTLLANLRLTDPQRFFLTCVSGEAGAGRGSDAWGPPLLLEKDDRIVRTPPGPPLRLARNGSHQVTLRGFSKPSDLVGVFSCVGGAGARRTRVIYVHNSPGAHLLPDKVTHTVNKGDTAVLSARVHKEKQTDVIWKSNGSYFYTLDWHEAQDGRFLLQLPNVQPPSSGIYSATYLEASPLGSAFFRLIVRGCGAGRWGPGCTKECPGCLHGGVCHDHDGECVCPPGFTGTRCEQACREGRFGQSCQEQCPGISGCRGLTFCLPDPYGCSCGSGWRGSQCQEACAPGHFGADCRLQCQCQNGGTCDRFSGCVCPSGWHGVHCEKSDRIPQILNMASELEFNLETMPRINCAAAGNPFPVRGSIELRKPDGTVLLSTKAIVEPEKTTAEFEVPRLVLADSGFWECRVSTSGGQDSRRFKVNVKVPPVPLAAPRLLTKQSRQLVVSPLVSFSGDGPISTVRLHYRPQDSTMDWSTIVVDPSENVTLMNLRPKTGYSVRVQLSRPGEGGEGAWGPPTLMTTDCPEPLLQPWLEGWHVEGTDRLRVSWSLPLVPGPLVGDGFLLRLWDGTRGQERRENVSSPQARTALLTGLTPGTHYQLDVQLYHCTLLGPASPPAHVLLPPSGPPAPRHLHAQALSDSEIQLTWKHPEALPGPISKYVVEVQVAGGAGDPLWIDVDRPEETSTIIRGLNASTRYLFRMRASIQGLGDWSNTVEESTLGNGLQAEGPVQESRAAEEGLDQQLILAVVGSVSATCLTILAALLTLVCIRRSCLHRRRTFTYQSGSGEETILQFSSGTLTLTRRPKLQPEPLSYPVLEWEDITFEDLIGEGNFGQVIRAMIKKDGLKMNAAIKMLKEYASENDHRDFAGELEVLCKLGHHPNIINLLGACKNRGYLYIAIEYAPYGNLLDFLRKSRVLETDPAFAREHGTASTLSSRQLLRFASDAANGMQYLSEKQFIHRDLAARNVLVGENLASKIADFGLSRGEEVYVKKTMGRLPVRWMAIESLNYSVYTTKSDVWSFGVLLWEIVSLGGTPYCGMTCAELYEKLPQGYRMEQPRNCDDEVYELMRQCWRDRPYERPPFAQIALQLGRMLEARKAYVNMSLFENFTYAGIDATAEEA", "assay": "scanMAX kinase assay panel", "type": "binding", "conditions": "read-out: control percentage (% control)", "in_short": "as §1"}, "[24]": {"target": "T22, TRKC (Homo sapiens, UniProt Q16288)", "T22 construct": "purchased DiscoverX", "T22 sequence (Q16288 32-839)": "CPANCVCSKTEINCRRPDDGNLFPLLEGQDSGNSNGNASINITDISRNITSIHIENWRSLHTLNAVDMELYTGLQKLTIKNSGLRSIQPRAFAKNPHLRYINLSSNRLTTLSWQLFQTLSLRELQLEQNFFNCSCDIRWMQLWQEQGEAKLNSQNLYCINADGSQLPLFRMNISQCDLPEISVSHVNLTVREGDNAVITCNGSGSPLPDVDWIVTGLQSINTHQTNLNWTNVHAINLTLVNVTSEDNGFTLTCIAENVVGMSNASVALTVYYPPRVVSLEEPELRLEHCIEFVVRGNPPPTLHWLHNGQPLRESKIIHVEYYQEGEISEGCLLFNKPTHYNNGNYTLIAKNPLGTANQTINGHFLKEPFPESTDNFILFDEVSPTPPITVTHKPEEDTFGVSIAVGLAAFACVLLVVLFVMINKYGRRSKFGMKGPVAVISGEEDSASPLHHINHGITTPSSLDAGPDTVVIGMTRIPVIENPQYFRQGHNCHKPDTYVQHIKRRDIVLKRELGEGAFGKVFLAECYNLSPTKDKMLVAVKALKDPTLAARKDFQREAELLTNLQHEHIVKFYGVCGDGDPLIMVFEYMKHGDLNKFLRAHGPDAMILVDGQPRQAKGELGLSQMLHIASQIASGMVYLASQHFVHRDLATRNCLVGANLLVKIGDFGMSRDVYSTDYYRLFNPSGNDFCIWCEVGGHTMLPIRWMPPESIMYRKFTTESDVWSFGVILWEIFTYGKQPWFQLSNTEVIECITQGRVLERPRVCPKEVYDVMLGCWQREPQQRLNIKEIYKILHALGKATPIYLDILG", "assay": "scanMAX kinase assay panel", "type": "binding", "conditions": "read-out: control percentage (% control)", "in_short": "as §1"}, "[25]": {"target": "T23, YSK4 (Homo sapiens, UniProt Q56UN5)", "T23 construct": "purchased DiscoverX", "assay": "scanMAX kinase assay panel", "type": "binding", "conditions": "read-out: control percentage (% control)", "in_short": "as §1"}, "[26]": {"target": "CDK4-cyclinD1 (Homo sapiens, UniProt P11802)", "sequence (P11802 whole entry)": "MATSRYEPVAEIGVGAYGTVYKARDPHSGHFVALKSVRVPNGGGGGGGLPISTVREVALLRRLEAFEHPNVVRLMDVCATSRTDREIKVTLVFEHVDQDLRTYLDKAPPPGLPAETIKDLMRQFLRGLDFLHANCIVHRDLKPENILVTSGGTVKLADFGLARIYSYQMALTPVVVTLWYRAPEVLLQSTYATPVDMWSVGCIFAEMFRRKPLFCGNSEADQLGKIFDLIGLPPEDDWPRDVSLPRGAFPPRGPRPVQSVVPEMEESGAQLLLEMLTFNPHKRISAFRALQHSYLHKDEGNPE", "sequence (P24385 whole entry partner)": "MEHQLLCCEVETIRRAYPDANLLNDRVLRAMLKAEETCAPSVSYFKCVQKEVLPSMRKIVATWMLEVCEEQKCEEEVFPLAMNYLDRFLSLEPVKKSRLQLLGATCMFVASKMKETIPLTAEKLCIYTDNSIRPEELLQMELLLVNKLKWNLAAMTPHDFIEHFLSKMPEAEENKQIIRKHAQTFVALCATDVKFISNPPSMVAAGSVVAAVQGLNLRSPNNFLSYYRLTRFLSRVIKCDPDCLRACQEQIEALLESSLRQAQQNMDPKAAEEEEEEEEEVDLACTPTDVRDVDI", "assay": "CDK4 enzyme inhibitory ability (Reaction Biology)", "type": "biochemical", "parameters": "purchased Reaction Biology (USA), contract assay", "conditions": "measured in Reaction Biology (USA)", "method": "In order to evaluate the CDK4 and CDK6 enzyme inhibitory activities of the example compounds according to the present invention, IC5O (nM) was measured for the CDK4 cyclin D1 and CDK6 cyclin D1 enzymes in Reaction Biology (USA), and the results were shown in Table 3 below."}}, "data": [{"smiles": "CN1CCN(c2ccc(Nc3nc(N4OCC[C@H]4c4ccccc4)c4cc[nH]c4n3)cc2)CC1", "note": "[Example 74, (S)-N-(4-(4-methylpiperazin-1-yl)phenyl)-4-(3-phenylisoxazolidin-2-yl)-7H-pyrrolo[2,3-d]pyrimidin-2-amine]", "values": [{"measurement": "GI50", "setting": "[1]", "result": "> 500", "unit": "nM"}, {"measurement": "remaining binding at 1 µM", "setting": "[2]", "result": 8.9, "unit": "%"}, {"measurement": "remaining binding at 1 µM", "setting": "[3]", "result": 3.4, "unit": "%"}, {"measurement": "remaining binding at 1 µM", "setting": "[4]", "result": 15, "unit": "%"}, {"measurement": "remaining binding at 1 µM", "setting": "[5]", "result": 9.2, "unit": "%"}, {"measurement": "remaining binding at 1 µM", "setting": "[6]", "result": 31, "unit": "%"}, {"measurement": "remaining binding at 1 µM", "setting": "[7]", "result": 0.15, "unit": "%"}, {"measurement": "control percentage (% control)", "setting": "[8]", "result": 0, "unit": "%"}, {"measurement": "remaining binding at 1 µM", "setting": "[9]", "result": 4.5, "unit": "%"}, {"measurement": "remaining binding at 1 µM", "setting": "[10]", "result": 12, "unit": "%"}, {"measurement": "remaining binding at 1 µM", "setting": "[11]", "result": 8.7, "unit": "%"}, {"measurement": "remaining binding at 1 µM", "setting": "[12]", "result": 28, "unit": "%"}, {"measurement": "remaining binding at 1 µM", "setting": "[13]", "result": 5.3, "unit": "%"}, {"measurement": "remaining binding at 1 µM", "setting": "[14]", "result": 17, "unit": "%"}, {"measurement": "remaining binding at 1 µM", "setting": "[15]", "result": 0, "unit": "%"}, {"measurement": "remaining binding at 1 µM", "setting": "[16]", "result": 11, "unit": "%"}, {"measurement": "remaining binding at 1 µM", "setting": "[17]", "result": 31, "unit": "%"}, {"measurement": "remaining binding at 1 µM", "setting": "[18]", "result": 0.25, "unit": "%"}, {"measurement": "remaining binding at 1 µM", "setting": "[19]", "result": 14, "unit": "%"}, {"measurement": "remaining binding at 1 µM", "setting": "[20]", "result": 13, "unit": "%"}, {"measurement": "remaining binding at 1 µM", "setting": "[21]", "result": 32, "unit": "%"}, {"measurement": "remaining binding at 1 µM", "setting": "[22]", "result": 16, "unit": "%"}, {"measurement": "remaining binding at 1 µM", "setting": "[23]", "result": 16, "unit": "%"}, {"measurement": "remaining binding at 1 µM", "setting": "[24]", "result": 21, "unit": "%"}, {"measurement": "remaining binding at 1 µM", "setting": "[25]", "result": 8.6, "unit": "%"}, {"measurement": "IC50", "setting": "[26]", "result": "≥ 250", "unit": "nM"}]}]}
